COP(=O)(NC(C)=O)SC (stereo unspecified)
Settings | solubility (mole fraction)
in acetone, 299.45 K | 0.068
in acetone, 302.6 K | 0.0811
in acetone, 305.2 K | 0.0923
in acetone, 306.4 K | 0.0986
in acetone, 309.8 K | 0.119
in acetone, 311.4 K | 0.131
in acetone, 313.75 K | 0.149
in acetone, 315.8 K | 0.167
in dichloromethane, 292.9 K | 0.176
in dichloromethane, 295.2 K | 0.19
in dichloromethane, 297.3 K | 0.203
in dichloromethane, 298.45 K | 0.21
in dichloromethane, 299.6 K | 0.217
in dichloromethane, 301.05 K | 0.226
in dichloromethane, 302.3 K | 0.233
in dichloromethane, 303.25 K | 0.241
in ethyl acetate, 307.9 K | 0.035
in ethyl acetate, 310.75 K | 0.0408
in ethyl acetate, 314.2 K | 0.049
in ethyl acetate, 318.4 K | 0.0648
in ethyl acetate, 321.55 K | 0.0779
in ethyl acetate, 324.95 K | 0.0965
in ethyl acetate, 327.6 K | 0.118
in isopropanol, 299.3 K | 0.0606
in isopropanol, 303.95 K | 0.0773
in isopropanol, 306.7 K | 0.0925
in isopropanol, 310.75 K | 0.118
in isopropanol, 313.35 K | 0.137
in isopropanol, 316.45 K | 0.163
in isopropanol, 319.45 K | 0.193
in isopropanol, 322 K | 0.224

Reference: BigSolDB 2.1
